Results: patent US20040043959A1, “Combination therapies for treating methylthioadenosine phosphorylase deficient cells” (priority 2002, published 2004)

Biological target: T1, Human MTAP (Homo sapiens, UniProt Q13126)
T1 construct: six-histidine tag (His6) (N); made in house; host or cells: E. coli BL21 DE3
T1 sequence (Q13126 1-283): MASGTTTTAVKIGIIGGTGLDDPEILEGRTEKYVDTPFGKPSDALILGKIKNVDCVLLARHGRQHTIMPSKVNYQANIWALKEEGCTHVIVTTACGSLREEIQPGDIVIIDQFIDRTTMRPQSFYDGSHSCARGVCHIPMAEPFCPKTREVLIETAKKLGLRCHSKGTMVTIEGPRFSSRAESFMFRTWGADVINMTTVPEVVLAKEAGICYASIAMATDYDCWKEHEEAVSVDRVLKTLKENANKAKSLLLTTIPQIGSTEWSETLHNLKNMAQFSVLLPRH
Test: MTAP substrate assay, coupled spectrophotometric (adenine, xanthine oxidase)
Assay type: biochemical
Conditions: 2 nM MTAP; for activity at 50 µM: 10 min, read-out: MT-A—50: initial velocity as a percentage of the initial velocity with MTA as substrate; for activity at 50 µM / MT-A—50: initial velocity as a percentage of the initial velocity with MTA as substrate: compound 50 uM, relative to MTA at 50 uM; for MT-A—10: initial velocity as a percentage of the initial velocity with MTA as substrate: compound 10 uM, relative to MTA at 10 uM
Experimental: An enzymatic assay to determine the activity of MTAP against a given substrate was performed. Human MTAP containing an N-terminal six-histidine tag was expressed in E. coli BL21 DE3 cells. The protein was purified to homogeneity by Ni2+ affinity chromatography. Enzymatic activity was measured using a coupled spectrophotometric assay designed to monitor the reaction product adenine (Savarese, T. M., Crabtree, G. W., and Parks, R. E. Jr., (1980) Biochem. Pharmacol. 30, 189-199). Various concentrations of the indicated 5′-deoxymethylthio adenosine (MTA) or substrate were incubated in assay buffer (40 mM potassium phosphate buffer, 1 mM, and DTT 0.8 units/ml xanthine oxidase coupling enzyme) for 5 minutes at 37° C. The reaction was initiated by the addition of MTAP. The exact concentration of enzyme used varied for each substrate tested and ranged from 2 nM to 500 nM. Activity as a function of enzyme concentration was determined for each substrate tested to ensure that the appropriate enzyme concentration was used. Activity was detected by continuous monitoring of absorbance at 305 nm for 10 minutes (ΔE=15,500 M^−1).
Library compounds (10 and 50 uM) were tested using the assay described above with 2 nM MTAP enzyme. The resultant initial velocities are reported as a percentage of the initial velocity observed when MTA is the substrate. MTA controls, 10 and 50 uM concentrations, were run on each plate alongside the library compounds.

| SMILES | activity at 50 µM [%] | MT-A—10: initial velocity as a percentage of the initial velocity with MTA as substrate [%] | MT-A—50: initial velocity as a percentage of the initial velocity with MTA as substrate [%] |
| --- | --- | --- | --- |
| Nc1ncnc2c1ncn2[C@@H]1O[C@H](CSc2ccccc2C2=NCCCN2)[C@@H](O)[C@H]1O [2(G)(1), (2R, 3R, 4S, 5S)-2-(6-amino-9H-purin-9-yl)-5-({[2-(1,4,5,6-tetrahydropyrimidin-2-yl)phenyl]thio}methyl)-tetrahydrofuran-3,4-diol] | 23 | 8 |  |
| Nc1ccccc1SC[C@H]1O[C@@H](n2cnc3c(N)ncnc32)[C@H](O)[C@@H]1O [2(G)(2), (2R, 3R, 4S, 5S)-2-(6-amino-9H-purin-9-yl)-5-{[(2-amino-phenyl)thio]methyl}tetrahydrofuran-3,4-diol] | 5 | 3 |  |
| Nc1nc(SC[C@H]2O[C@@H](n3cnc4c(N)ncnc43)[C@H](O)[C@@H]2O)c2[nH]cnc2n1 [2(G)(3), (2R, 3R, 4S, 5S)-2-(6-amino-9H-purin-9-yl)-5-{[(2-amino-7H-purin-6-yl)thio]methyl}tetrahydro-furan-3,4-diol] | 45 | 46 |  |
| CCc1cnc(SC[C@H]2O[C@@H](n3cnc4c(N)ncnc43)[C@H](O)[C@@H]2O)[nH]c1=O [2(G)(4), 2-({[(2S, 3S, 4R, 5R)-5-(6-amino-9H-purin-9-yl)-dihydroxytetrahydrofuran-2-yl]methyl}thio)-5-ethylpyrimidin-4(3H)-one] | 49 | 38 |  |
| Cn1nnnc1SC[C@H]1O[C@@H](n2cnc3c(N)ncnc32)[C@H](O)[C@@H]1O [2(G)(6), (2R, 3R, 4S, 5S)-2-(6-amino-9H-purin-9-yl)-5-{[(1-methyl-1H-tetrazol-5-yl)thio]methyl}tetra-hydrofuran-3,4-diol] | 47 | 46 |  |
| CCCSc1ccc2[nH]c(SC[C@H]3O[C@@H](n4cnc5c(N)ncnc54)[C@H](O)[C@@H]3O)nc2c1 [2(G)(7), (2R, 3R, 4S, 5S)-2-(6-amino-9H-purin-9-yl)-5-({[5-(propylthio)-1H-benzimidazol-2-yl]thio}methyl)tetrahydro-furan-3,4-diol] | 0 | 3 |  |
| Nc1ncnc2c1ncn2[C@@H]1O[C@H](CSc2ncccn2)[C@@H](O)[C@H]1O [2(G)(8), (2R, 3R, 4S, 5S)-2-(6-amino-9H-purin-9-yl)-5-[(pyrimidin-2-ylthio)methyl]tetrahydro-furan-3,4-diol] | 59 | 54 |  |
| Nc1nnc(SC[C@H]2O[C@@H](n3cnc4c(N)ncnc43)[C@H](O)[C@@H]2O)s1 [2(G)(9), (2R, 3R, 4S, 5S)-2-(6-amino-9H-purin-9-yl)-5-{[(5-amino-1,3,4-thiadiazol-2-yl)thio]methyl}tetrahydro-furan-3,4-diol] | 47 | 34 |  |
| Nc1ccc(SC[C@H]2O[C@@H](n3cnc4c(N)ncnc43)[C@H](O)[C@@H]2O)cc1 [2(G)(10), (2R, 3R, 4S, 5S)-2-(6-amino-9H-purin-9-yl)-5-{[(4-aminophenyl)thio]methyl]-tetrahydrofuran-3,4-diol] | 19 | 20 |  |
| Nc1ncnc2c1ncn2[C@@H]1O[C@H](CSc2nc3cc(Cl)ccc3s2)[C@@H](O)[C@H]1O [2(G)(11), (2R, 3R, 4S, 5S)-2-(6-amino-9H-purin-9-yl)-5-{[(5-chloro-1,3-benzothiazol-2-yl)thio]methyl}tetrahydro-furan-3,4-diol] | 25 | 22 |  |
| Nc1ncnc2c1ncn2[C@@H]1O[C@H](CSc2nc3ccccc3s2)[C@@H](O)[C@H]1O [2(G)(12), (2R, 3R, 4S, 5S)-2-(6-amino-9H-purin-9-yl)-5-[(1,3-benzothiazol-2-ylthio)methyl]tetrahydro-furan-3,4-diol] | 25 | 24 |  |
| CC(=O)Nc1ccc(SC[C@H]2O[C@@H](n3cnc4c(N)ncnc43)[C@H](O)[C@@H]2O)cc1 [2(G)(13), N-[4-({[(2S, 3S, 4R, 5R)-5-(6-amino-9H-purin-9-yl)-dihydroxytetrahydro-furan-2-yl]methyl}thio)phenyl]acetamide] |  | 19 | 17 |
| Nc1ncnc2c1ncn2[C@@H]1O[C@H](CSc2ccc(O)cc2)[C@@H](O)[C@H]1O [2(G)(14), (2R, 3R, 4S, 5S)-2-(6-amino-9H-purin-9-yl)-5-{[(4-hydroxyphenyl)-thio]-methyl}tetrahydrofuran-3,4-diol] | 51 | 16 |  |
| Nc1ncnc2c1ncn2[C@@H]1O[C@H](CSc2ccc3ccccc3c2)[C@@H](O)[C@H]1O [2(G)(15)] |  | 29 | 25 |
| COc1ccc(CSC[C@H]2O[C@@H](n3cnc4c(N)ncnc43)[C@H](O)[C@@H]2O)cc1 [2(G)(16), (2R, 3R, 4S, 5S)-2-(6-amino-9H-purin-9-yl)-5-{[(4-methoxybenzyl)-thio]methyl}tetrahydro-furan-3,4-diol] | 60 | 59 |  |
| Nc1ncnc2c1ncn2[C@@H]1O[C@H](CSc2ccc(Br)cc2)[C@@H](O)[C@H]1O [2(G)(17), (2R, 3R, 4S, 5S)-2-(6-amino-9H-purin-9-yl)-5-{[(4-bromophenyl)-thio]methyl}tetrahydro-furan-3,4-diol] | 17 | 21 |  |
| Nc1ncnc2c1ncn2[C@@H]1O[C@H](CSc2cccc3ccccc23)[C@@H](O)[C@H]1O [2(G)(18), (2R, 3R, 4S, 5S)-2-(6-amino-9H-purin-9-yl)-5-[(1-naphthylthio)methyl]tetrahydrofuran-3,4-diol] | 4 | 5 |  |
| Nc1ncnc2c1ncn2[C@@H]1O[C@H](CSc2ccc(Cl)cc2)[C@@H](O)[C@H]1O [2(G)(19), (2R, 3R, 4S, 5S)-2-(6-amino-9H-purin-9-yl)-5-{[(4-chlorophenyl)thio]-methyl}tetrahydro-furan-3,4-diol] | 17 | 19 |  |
| COC(=O)c1ccc(SC[C@H]2O[C@@H](n3cnc4c(N)ncnc43)[C@H](O)[C@@H]2O)cc1 [2(G)(20), methyl 4-({[(2S, 3S, 4R, 5R)-5-(6-amino-9H-purin-9-yl)-5-3,4-dihydroxytetrahydro-furan-2-yl]methyl}thio)benzoate] | 5 | 7 |  |
| CC(C)(C)c1ccc(SC[C@H]2O[C@@H](n3cnc4c(N)ncnc43)[C@H](O)[C@@H]2O)cc1 [2(G)(21), (2R, 3R, 4S, 5S)-2-(6-amino-9H-purin-9-yl)-5-{[(4-tert-butylphenyl)thio]methyl}tetrahydrofuran-3,4-diol] | 9 | 12 |  |
| Cc1cccc(C)c1SC[C@H]1O[C@@H](n2cnc3c(N)ncnc32)[C@H](O)[C@@H]1O [2(G)(22), (2R, 3R, 4S, 5S)-2-(6-amino-9H-purin-9-yl)-5-{[(2,6-dimethylphenyl)-thio]methyl}tetrahydro-furan-3,4-diol] | 15 | 3 |  |
| Nc1ncnc2c1ncn2[C@@H]1O[C@H](CSc2ccc(F)cc2)[C@@H](O)[C@H]1O [2(G)(23), (2R, 3R, 4S, 5S)-2-(6-amino-9H-purin-9-yl)-5-{[(4-fluorophenyl)-thio]methyl}tetra-hydrafuran-3,4-diol] | 31 | 21 |  |
| COc1ccc(OC)c(SC[C@H]2O[C@@H](n3cnc4c(N)ncnc43)[C@H](O)[C@@H]2O)c1 [2(G)(24), (2R, 3R, 4S, 5S)-2-(6-amino-9H-purin-9-yl)-5-{[(2,5-dimethoxy-phenyl)-thio]methyl}tetrahydrofuran-3,4-diol] | 23 | 4 |  |
| COc1ccc(SC[C@H]2O[C@@H](n3cnc4c(N)ncnc43)[C@H](O)[C@@H]2O)cc1OC [2(G)(25), (2R, 3R, 4S, 5S)-2-(6-amino-9H-purin-9-yl)-5-{[(3,4-dimethoxyphenyl)-thio]methyl}tetrahydro-furan-3,4-diol] | 30 | 5 |  |
